Our source for the mortality values is US20220041582A1, “ISOXAZOLINE COMPOUNDS FOR CONTROLLING INVERTEBRATE PESTS” (FMC Corporation, priority 2018, published 2022).

Usually mortality stands for the share of the test organisms that died.

Like-named read-outs stand apart in the source and are kept apart here.

Common to all, as to assay type: in vivo
The subject of series [1] is green peach aphid (Myzus persicae (Sulzer)). The experiment in a line: Test E: control of green peach aphid through contact and/or systemic means. Conditions: 144 h. How it is done: (§1) Formulation and Spray Methodology for Tests A-H
(§2) Test compounds were formulated using a solution containing 10% acetone, 90% water and 300 ppm Activator 90® non-ionic surfactant (Loveland Products, Loveland, Colo., USA). The formulated compounds were applied in 1 mL of liquid through an atomizer nozzle positioned 1.27 cm (0.5 inches) above the top of each test unit. Test compounds were sprayed at the rates indicated, and each test was replicated three times.
For evaluating control of green peach aphid (Myzus persicae (Sulzer)) through contact and/or systemic means, the test unit consisted of a small open container with a 12-15-day-old radish plant inside. This was pre-infested by placing on a leaf of the test plant 30-40 aphids on a piece of leaf excised from a culture plant (cut-leaf method). The aphids moved onto the test plant as the leaf piece desiccated. After pre-infestation, the soil of the test unit was covered with a layer of sand.
Test compounds were formulated and sprayed at 250, 50 and 10 ppm. After spraying of the formulated test compound, each test unit was allowed to dry for 1 hour and then a black, screened cap was placed on top. The test units were held for 6 days in a growth chamber at 19-21° C. and 50-70% relative humidity. Each test unit was then visually assessed for insect mortality.

In series [2] the test system is cotton melon aphid (Aphis gossypii (Glover)). Put plainly: Test F: control of cotton melon aphid through contact and/or systemic means. The following applies: 144 h. How it is done: as §1, §2
[…] This was pre-infested with 30-40 insects on a piece of leaf according to the cut-leaf method, and the soil of the test unit was covered with a layer of sand.
Test compounds were formulated and sprayed at 250, 50 and 10 ppm. After spraying, the test units were maintained in a growth chamber for 6 days at 19° C. and 70% relative humidity. Each test unit was then visually assessed for insect mortality.

The test system of series [3] is sweetpotato whitefly (Bemisia tabaci (Gennadius)). The experiment in a line: Test G: control of sweetpotato whitefly through contact and/or systemic means. The following applies: 312 h. The procedure: as §1, §2
For evaluating control of the sweetpotato whitefly (Bemisia tabaci (Gennadius)) through contact and/or systemic means, the test unit consisted of a small open container with a 12-14-day-old cotton plant inside. Prior to the spray application, both cotyledons were removed from the plant, leaving one true leaf for the assay. Adult whiteflies were allowed to lay eggs on the plant and then were removed from the test unit. Cotton plants infested with at least 15 eggs were submitted to the test for spraying.
Test compounds were formulated and sprayed at 250, 50 and 10 ppm. After spraying, the test units were allowed to dry for 1 hour. The cylinders were then removed, and the units were taken to a growth chamber and held for 13 days at 28° C. and 50-70% relative humidity. Each test unit was then visually assessed for insect mortality.

Series [4] has as its system corn planthopper (Peregrinus maidis (Ashmead)). The experiment in a line: Test C: control of corn planthopper through contact and/or systemic means. Conditions: for mortality at 50 ppm: Peregrinus maidis, 144 h. How it is done:
as §1, §2
For evaluating control of corn planthopper (Peregrinus maidis (Ashmead)) through contact and/or systemic means, the test unit consisted of a small open container with a 3-4-day-old corn (maize) plant inside. White sand was added to the top of the soil prior to application of the test compound.
Test compounds were formulated and sprayed at 50 and 10 ppm. After spraying of the formulated test compound, the test units were allowed to dry for 1 h before they were post-infested with ˜15-20 nymphs (18-to-21-day-old). A black, screened cap was placed on the top of each test unit, and the test units were held for 6 days in a growth chamber at 22-24° C. and 50-70% relative humidity. Each test unit was then visually assessed for insect mortality.

Series [5] has as its system potato leafhopper (Empoasca fabae (Harris)). The experiment in a line: Test D: control of potato leafhopper through contact and/or systemic means. The following applies: 144 h. The procedure:
as §1, §2
[…] White sand was added to the top of the soil, and one of the primary leaves was excised prior to application of the test compound.
Test compounds were formulated and sprayed at 250, 50 and 10 ppm. After spraying of the formulated test compound, the test units were allowed to dry for 1 hour before they were post-infested with 5 potato leafhoppers (18-to-21-day-old adults). A black, screened cap was placed on the top of the test unit, and the test units were held for 6 days in a growth chamber at 20° C. and 70% relative humidity. Each test unit was then visually assessed for insect mortality.

Where [6] appears, read: 10 ppm spray, 6 days, read-out: mortality.
Setting [7] is: 50 ppm spray, 6 days, read-out: mortality.
[8] abbreviates: 50 ppm spray, 13 days, read-out: mortality.

As to `O=C(NCc1ncccn1)c1ccc(C2=NOC(c3cc(Cl)c(F)c(Cl)c3)(C(F)(F)F)C2)c2ccncc12` (stereo not drawn) [Compound 4, 5-[5-(3,5-dichloro-4-fluorophenyl)-4,5-dihydro-5-(trifluoromethyl)-3-isoxazolyl]-N-(2-pyrimidinylmethyl)-8-isoquinolinecarboxamide], the mortality at 50 ppm in series [1] was no less than 80%; in series [2], no less than 80%; in series [3], no less than 50%; in series [4], no less than 80%; in series [5], no less than 80%. The mortality at 10 ppm is no less than 80% in series [2] and no less than 50% in series [3].
As for `COC(=O)[C@@H](C)NC(=O)c1ccc(C2=NOC(c3cc(Cl)c(F)c(Cl)c3)(C(F)(F)F)C2)c2ccncc12` (stereo partly drawn) [Compound 6], the mortality at 10 ppm in series [1] and in series [2] was no less than 80% each time. Further, the mortality at 50 ppm in series [1] is no less than 80%; in series [2], no less than 80%; in series [3], no less than 50%; in series [4] it was no less than 80%; in series [5] it was no less than 80%.
Turning to `C[C@@H](NC(=O)c1ccc(C2=NOC(c3cc(Cl)c(F)c(Cl)c3)(C(F)(F)F)C2)c2ccncc12)c1ccccn1` (stereo partly drawn) [Compound 13], the mortality at 10 ppm in series [1] was no less than 80%; in series [2], no less than 80%; in series [3] it was no less than 50%; in series [5], no less than 80%. Moreover, the mortality at 50 ppm in series [1] is no less than 80%; in series [2] it was no less than 80%; in series [3] it was no less than 50%; in series [5], no less than 80%.
For `O=C(NCc1ncccn1)c1ccc(C2=NOC(c3cccc(C(F)(F)F)c3)(C(F)(F)F)C2)c2ccncc12` (stereo not drawn) [Compound 18], in series [1] (setting [6]), the mortality at 10 ppm was no less than 80%. Besides, the mortality at 50 ppm in series [1] (setting [7]), in series [2] (setting [7]) and in series [4] (setting [7]) was no less than 80% each time.
Take `COCC(C)NC(=O)c1ccc(C2=NOC(c3cc(Cl)c(F)c(Cl)c3)(C(F)(F)F)C2)c2ccncc12` (stereo not drawn) [Compound 20]: the values for the mortality at 10 ppm in series [1], in series [2] and in series [3] were no less than 80%, no less than 80% and no less than 50%, respectively. Besides, the mortality at 50 ppm in series [1] is no less than 80%; in series [2], no less than 80%; in series [3] it was no less than 50%; in series [5], no less than 80%.
In the case of `CC(C)NC(=O)c1ccc(C2=NOC(c3cc(Cl)c(F)c(Cl)c3)(C(F)(F)F)C2)c2ccncc12` (stereo not drawn) [Compound 28], the mortality at 10 ppm in series [1] is no less than 80%; in series [2], no less than 80%; in series [3], no less than 50%. Further, the mortality at 50 ppm in series [1] was no less than 80%; in series [2], no less than 80%; in series [3], no less than 50%; in series [5] it was no less than 80%.
For the compound `CSCCNC(=O)c1ccc(C2=NOC(c3cccc(C(F)(F)F)c3)(C(F)(F)F)C2)c2ccncc12` (stereo not drawn) [Compound 29], the mortality at 50 ppm in series [1] (setting [7]), in series [2] (setting [7]) and in series [4] (setting [7]) was no less than 80% throughout.
As to `O=C(NC1CC1)c1ccc(C2=NOC(c3cc(Cl)cc(C(F)(F)F)c3)(C(F)(F)F)C2)c2ccncc12` (stereo not drawn) [Compound 35, 5-[5-[3-chloro-5-(trifluoromethyl)phenyl]-4,5-dihydro-5-(trifluoromethyl)-3-isoxazolyl]-N-cyclopropyl-8-isoquinolinecarboxamide], the mortality at 10 ppm in series [1] was no less than 80%; in series [2] it was no less than 80%; in series [3] it was no less than 50%; in series [5], no less than 80%. For the same compound, the mortality at 50 ppm in series [1] is no less than 80%; in series [2], no less than 80%; in series [3] it was no less than 50%; in series [4], no less than 80%; in series [5], no less than 80%.
In the case of `O=C(NCC1CC1)c1ccc(C2=NOC(c3cc(Cl)cc(C(F)(F)F)c3)(C(F)(F)F)C2)c2ccncc12` (stereo not drawn) [Compound 36, 5-[5-[3-chloro-5-(trifluoromethyl)phenyl]-4,5-dihydro-5-(trifluoromethyl)-3-isoxazolyl]-N-(cyclopropylmethyl)-8-isoquinolinecarboxamide], the mortality at 10 ppm in series [1] is no less than 80%; in series [2], no less than 80%; in series [3], no less than 50%; in series [5], no less than 80%. Also, the mortality at 50 ppm is no less than 80% in series [1], no less than 80% in series [2], no less than 50% in series [3] and no less than 80% in series [5].
Consider `C#CCNC(=O)c1ccc(C2=NOC(c3cc(Cl)c(F)c(Cl)c3)(C(F)(F)F)C2)c2ccncc12` (stereo not drawn) [Compound 48, 5-[5-(3,5-dichloro-4-fluorophenyl)-4,5-dihydro-5-(trifluoromethyl)-3-isoxazolyl]-N-2-propyn-1-yl-8-isoquinolinecarboxamide], for which the mortality at 50 ppm in series [1], in series [2], in series [4] and in series [5] was no less than 80% throughout.
On to `O=C(NC1CC1)c1ccc(C2=NOC(c3ccc(F)c(C(F)(F)F)c3)(C(F)(F)F)C2)c2ccncc12` (stereo not drawn) [Compound 55, N-cyclopropyl-5-[5-[4-fluoro-3-(trifluoromethyl)phenyl]-4,5-dihydro-5-(trifluoromethyl)-3-isoxazolyl]-8-isoquinolinecarboxamide], for which the mortality at 50 ppm in series [1] (setting [7]) is no less than 80%; in series [2] (setting [7]), no less than 80%; in series [3] (setting [8]), no less than 50%; in series [4] (setting [7]) it was no less than 80%; in series [5] (setting [7]), no less than 80%. Moreover, the mortality at 10 ppm is no less than 80% in series [2] (setting [6]) and no less than 50% in series [3] (10 ppm spray, 13 days, read-out: mortality).
Regarding `O=C(NCC1CC1)c1ccc(C2=NOC(c3ccc(F)c(C(F)(F)F)c3)(C(F)(F)F)C2)c2ccncc12` (stereo not drawn) [Compound 58, N-(cyclopropylmethyl)-5-[5-[4-fluoro-3-(trifluoromethyl)phenyl]-4,5-dihydro-5-(trifluoromethyl)-3-isoxazolyl]-8-isoquinolinecarboxamide], the mortality at 10 ppm in series [1] (setting [6]) and in series [2] (setting [6]) was no less than 80% in each case. Also, the mortality at 50 ppm in series [1] (setting [7]) is no less than 80%; in series [2] (setting [7]), no less than 80%; in series [3] (setting [8]), no less than 50%; in series [4] (setting [7]), no less than 80%; in series [5] (setting [7]), no less than 80%.
`C#CCNC(=O)c1ccc(C2=NOC(c3ccc(F)c(C(F)(F)F)c3)(C(F)(F)F)C2)c2ccncc12` (stereo not drawn) [Compound 74, 5-[5-[4-fluoro-3-(trifluoromethyl)phenyl]-4,5-dihydro-5-(trifluoromethyl)-3-isoxazolyl]-N-2-propyn-1-yl-8-isoquinolinecarboxamide]: the mortality at 50 ppm in series [1] (setting [7]) was no less than 80%; in series [2] (setting [7]), no less than 80%; in series [3] (setting [8]), no less than 50%; in series [4] (setting [7]), no less than 80%; in series [5] (setting [7]), no less than 80%.
Consider `O=C(NCc1ncccn1)c1ccc(C2=NOC(c3ccc(F)c(C(F)(F)F)c3)(C(F)(F)F)C2)c2ccncc12` (stereo not drawn) [Compound 76], for which, in series [4] (10 ppm spray, 6 days), the mortality entry is listed as “at least 80%”.
